Read-outs that look alike come from different tables or passages of the source.
Experiments:
U937 [1] = experiment: cells; design: species or system AML cell lines (8); conditions: Homo sapiens, U-937, 72 h, read-out: U937
MV4-11 [2] = experiment: cells; design: species or system AML cell lines (8); conditions: Homo sapiens, MV4-11, 72 h, read-out: MV4-11
M07e [3] = experiment: Secondary dose-response HTS, Cell Titer Glo; type: cell-based, human; conditions: for EC50: Homo sapiens, M-07e
CMS [4] = experiment: Secondary dose-response HTS, Cell Titer Glo; type: cell-based, human; conditions: for EC50: Homo sapiens, HTS
MOLM-13 [5] = experiment: Secondary dose-response HTS, Cell Titer Glo; type: cell-based, human; conditions: MOLM-13; for EC50: Homo sapiens
ML2 = experiment: Secondary dose-response HTS, Cell Titer Glo; type: cell-based, human; conditions: ML-2; for EC50: Homo sapiens
CMS [6] = experiment: cells; design: species or system AML cell lines (8); conditions: 72 h, read-out: CMS
CMK [7] = experiment: cells; design: species or system AML cell lines (8); conditions: Homo sapiens, 72 h, read-out: CMK
CMK [8] = experiment: Secondary dose-response HTS, Cell Titer Glo; type: cell-based, human; conditions: CMK; for EC50: Homo sapiens
MV4-11 [9] = experiment: Secondary dose-response HTS, Cell Titer Glo; type: cell-based, human; conditions: MV4-11; for EC50: Homo sapiens
U937 [10] = experiment: Secondary dose-response HTS, Cell Titer Glo; type: cell-based, human; conditions: for EC50: Homo sapiens, U-937
M07e [11] = experiment: cells; design: species or system AML cell lines (8); conditions: M-07e, 72 h, read-out: M07e
MOLM-13 [12] = experiment: cells; design: species or system AML cell lines (8); Secondary HTS, 10-point dose-response in triplicate, Cell Titer Glo viability, four-parameter fit EC50; conditions: Homo sapiens; 72 h cell viability; read-out: MOLM-13
ML-2 = experiment: cells; design: species or system AML cell lines (8); conditions: Homo sapiens, ML-2, 72 h, read-out: ML-2
CHRF288-11 [13] = experiment: Secondary dose-response HTS, Cell Titer Glo; type: cell-based, human; conditions: for EC50: Homo sapiens
CHRF288-11 [14] = experiment: cells; design: species or system AML cell lines (8); conditions: 72 h, read-out: CHRF288-11
[15] = test system: AMKL primary AML blast samples; experiment: Ex vivo drug treatment of primary AML blasts on mesenchymal stromal cells; type: cell-based; conditions: Homo sapiens; primary blasts on MSC, 96 h
[16] = test system: MLLr primary AML blast samples; experiment: as above; type: cell-based; conditions: Homo sapiens; primary blasts on MSC, 96 h, range over patient samples
[17] = test system: FLT3-ITD+ primary AML blast samples
[18] = secondary high-throughput screen
[19] = secondary high-throughput screen, CMS
[20] = secondary high-throughput screen, U937
[21] = secondary high-throughput screen, CHRF288-11
[22] = secondary high-throughput screen, M07e, read-out: average effective concentration, M07e
[23] = secondary high-throughput screen, read-out: average effective concentration, ML-2
[24] = secondary high-throughput screen, CMS, read-out: average effective concentration, CMS
[25] = secondary high-throughput screen, read-out: average effective concentration, MOLM-13
[26] = secondary high-throughput screen, read-out: average effective concentration, CMK
[27] = secondary high-throughput screen, read-out: average effective concentration, MV4-11
[28] = secondary high-throughput screen, U937, read-out: average effective concentration, U937

Row | SMILES | EC50 (U937 [1]) [µM] | EC50 (MV4-11 [2]) [µM] | EC50 (CMS [6]) [µM] | EC50 (CMK [7]) [µM] | EC50 (M07e [11]) [µM] | EC50 (MOLM-13 [12]) [µM] | EC50 (ML-2) [µM] | EC50 (CHRF288-11 [14]) [µM] | EC50 (M07e [3]; [22]) [µM] | EC50 (ML2; [23]) [µM] | EC50 (MV4-11 [9]; [27]) [µM] | other results
1 | COC1=CC(=O)O[C@@H](/C=C/c2ccc3c(c2)OCO3)C1 [METHYSTICIN] | > 10 | > 10 | > 10 | > 10 | > 10 | > 10 | > 10 | > 10 |  |  |  | average effective concentration, M07e (M07e [3]; [18]): Inactive; average effective concentration, CMS (CMS [4]; [19]): Inactive; average effective concentration, MOLM-13 (MOLM-13 [5]; [18]): Inactive; average effective concentration, ML-2 (ML2; [18]): Inactive; average effective concentration, CMK (CMK [8]; [18]): Inactive; average effective concentration, MV4-11 (MV4-11 [9]; [18]): Inactive; average effective concentration, U937 (U937 [10]; [20]): Inactive; average effective concentration, CHRF288-11 (CHRF288-11 [13]; [21]): Inactive
2 | CCc1ccc(CCOc2ccc(CC3SC(=O)NC3=O)cc2)nc1 (stereo not drawn) [PIOGLITAZONE] | > 10 | > 10 | > 10 | > 10 | > 10 | > 10 | > 10 | > 10 |  |  |  | 
3 | Cc1[nH]c2ccccc2c1CCNCc1ccc(/C=C/C(=O)NO)cc1 [Panobinostat, reference compound] |  |  |  |  |  |  |  |  | 0.00464 | 0.012 |  | EC50 (M07e [3]; secondary HTS, 72 h, average of triplicate, read-out: EC50 M07e): 0.005 µM; IC50 [15]: 0.014 µM; EC50 (CMS [4]; 72 h, read-out: EC50 CMS): 0.03 µM; EC50 (CMS [4]; read-out: average effective concentration, CMS): 0.028 µM; EC50 (MOLM-13 [5]; secondary HTS, 72 h, average of triplicate, read-out: EC50 MOLM-13): 0.18 µM; EC50 (ML2; secondary HTS, 72 h, average of triplicate, read-out: EC50 ML2): 0.01 µM; IC50 [16]: 0.0009 to 0.0033 µM; EC50 (CMK [8]; 72 h, read-out: EC50 CMK): 0.003 µM; EC50 (CMK [8]; read-out: average effective concentration, CMK): 0.00285 µM; EC50 (MV4-11 [9]; secondary HTS, 72 h, average of triplicate, read-out: EC50 MV4-11): 0.13 µM; EC50 (U937 [10]; secondary HTS, 72 h, average of triplicate, read-out: EC50 U937): 0.01 µM; EC50 (CHRF288-11 [13]; secondary HTS, 72 h, average of triplicate, read-out: EC50 CHRF288-11): 0.01 µM
4 | C[C@@H]1C[C@H]2O[C@@H]2/C=C\C=C\C(=O)Cc2c(Cl)c(O)cc(O)c2C(=O)O1 [RADICICOL] |  |  |  |  | > 10 |  |  |  |  | 0.061 | 0.021 | EC50 (CMS [4]; [24]): 0.11 µM; EC50 (MOLM-13 [5]; [25]): 0.027 µM; EC50 (CMK [8]; [26]): 0.066 µM; EC50 (U937 [10]; [28]): 0.015 µM; EC50 (CHRF288-11 [13]; HTS, secondary high-throughput screen, CHRF288-11, read-out: average effective concentration, CHRF288-11): 0.092 µM
5 | NC(=O)c1ncn([C@@H]2O[C@H](CO)[C@@H](O)[C@H]2O)n1 [RIBAVIRIN] | > 10 | > 10 | > 10 | > 10 |  | > 10 | > 10 | > 10 | 9.3 |  |  | 
6 | Cn1c(COP(=O)(NCCBr)NCCBr)cnc1[N+](=O)[O-] [TH-302] | > 10 | > 10 | > 10 | > 10 | > 10 | > 10 | > 10 | > 10 |  |  |  | average effective concentration, M07e (M07e [3]; [18]): Inactive; average effective concentration, CMS (CMS [4]; [19]): Inactive; average effective concentration, MOLM-13 (MOLM-13 [5]; [18]): Inactive; average effective concentration, ML-2 (ML2; [18]): Inactive; average effective concentration, CMK (CMK [8]; [18]): Inactive; average effective concentration, MV4-11 (MV4-11 [9]; [18]): Inactive; average effective concentration, U937 (U937 [10]; [20]): Inactive; average effective concentration, CHRF288-11 (CHRF288-11 [13]; [21]): Inactive
7 | CC(C)[C@]12O[C@H]1[C@@H]1O[C@]13[C@]1(O[C@H]1C[C@H]1C4=C(CC[C@@]13C)C(=O)OC4)[C@@H]2O [TRIPTOLIDE] |  |  |  |  |  |  |  | > 10 | 0.01 | 0.061 | 0.23 | EC50 (CMS [4]; [24]): 0.07 µM; EC50 (MOLM-13 [5]; [25]): 0.12 µM; EC50 (CMK [8]; [26]): 0.01 µM; EC50 (U937 [10]; [28]): 0.1 µM
8 | Cn1ncnc1[C@H]1c2n[nH]c(=O)c3cc(F)cc(c23)N[C@@H]1c1ccc(F)cc1 [Talazoparib] |  |  |  |  |  |  |  |  |  |  |  | IC50 [17]: 1.98 to 2.46 µM
9 | O=C(CCCCCCC(=O)Nc1ccccc1)NO [Vorinostat, reference compound] |  |  |  |  |  |  |  |  |  |  | 0.79 | IC50 [17]: 0.304 to 2.89 µM

From paper PMC6522510 (Nature Communications, 2019)
